These results are taken from patent US5637770A (priority 1991, dated 1997).

As a reminder, the pIC50 is the negative decadic logarithm of the IC50, by convention in mol/L. The low end stands for a large IC50, the high end for a small IC50.

One data set deals with nucleic acid synthesis. The following applies: background statement; cited from earlier work.
A further data set addresses T1, topoisomerase I (Mus musculus, UniProt Q04750).
T1 construct: Topoisomerase I was prepared from p388 mouse leukemia; endogenous in cells; host or cells: P388 mouse leukemia
T1 sequence (Q04750 1-767): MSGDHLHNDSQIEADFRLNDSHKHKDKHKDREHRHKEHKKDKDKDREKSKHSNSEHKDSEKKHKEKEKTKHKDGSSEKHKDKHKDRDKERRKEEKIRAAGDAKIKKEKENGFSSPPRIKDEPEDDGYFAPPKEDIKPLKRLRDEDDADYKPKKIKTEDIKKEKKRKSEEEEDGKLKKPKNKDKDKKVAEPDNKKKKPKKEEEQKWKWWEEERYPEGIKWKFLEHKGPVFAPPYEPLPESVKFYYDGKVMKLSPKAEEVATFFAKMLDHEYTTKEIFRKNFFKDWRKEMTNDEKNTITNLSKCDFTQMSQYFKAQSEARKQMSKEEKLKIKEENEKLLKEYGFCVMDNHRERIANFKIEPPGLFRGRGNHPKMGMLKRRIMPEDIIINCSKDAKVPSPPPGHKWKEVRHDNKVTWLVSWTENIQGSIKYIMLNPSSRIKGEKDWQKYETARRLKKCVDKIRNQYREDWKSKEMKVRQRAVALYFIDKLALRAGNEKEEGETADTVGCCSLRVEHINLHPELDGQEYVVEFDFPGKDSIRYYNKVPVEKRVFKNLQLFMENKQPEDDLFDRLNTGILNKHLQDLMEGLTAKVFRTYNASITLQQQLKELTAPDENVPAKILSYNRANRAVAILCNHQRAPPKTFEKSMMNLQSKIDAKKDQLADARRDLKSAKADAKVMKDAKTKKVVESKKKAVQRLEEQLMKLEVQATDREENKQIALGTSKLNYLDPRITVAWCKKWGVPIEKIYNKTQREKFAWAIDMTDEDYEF
The experiment in a line: Topoisomerase I assay, relaxation of supercoiled SV40 DNA. Format: biochemical, p388 mouse leukemia. Here is the method: Topoisomerase I was prepared from p388 mouse leukemia. One unit (the minimum amount of full relaxation of 0.5 μg SV40 DNA) of topoisomerase I,
0.5 μl of the test compounds, and 0.5 μg of SV40 DNA were added sequentially to the reaction buffer. The reaction mixture (50 μl) was incubated for 10 min and 37° C. and analyzed by electrophoresis, the gel was stained with 0.05% ethydium bromide and photographed with UV light. The DNA was quantified using a densitometor. The inhibition rate of the topoisomerase activity was calculated as [formula] where Frt and Frc are ratios of relaxed DNA to total DNA treated with topoisomerase in the presence and absence of the test drug, respectively. Fr is the proportion of relaxed DNA in untreated DNA. The IC50 of each test drug was estimated from the dose-response.

The conditions of data set [1]: clinical tests in the United States; cited from earlier work.

pIC50: −log10 of the molar value.

In the case of `CC[C@@]1(O)C(=O)OCc2c1cc1n(c2=O)Cc2cc3ccccc3nc2-1` [camptohecin, camptothecin], in the data set on nucleic acid synthesis, the antitumor activity result is “exhibit an antitumor activity”. At topoisomerase I, the pIC50 is 4.36. The “safety in clinical tests” value in data set [1] is recorded as “problem in view of safety”.
